Assay results taken from patent US7713948B2, “Use of 5-substituted nucleosides for reinforcing the apoptotic effect of cytostatic drugs” (Resprotect GmbH, priority 2003, dated 2010).
“Also recorded” adds a separate entry of the source. One block for each compound: values may come before it.

What was measured:
[1] = test system: dimethybenzanthracene (DMBA) induced tumours; assay: DMBA-induced tumours in SD rats, tumour size; format: in vivo; settings: DOX 1 mg/kg
Procedure: (§1) The reduction in toxic side effects of doxorubicin (DOX) was able to be shown in the test with rats (see Table 1). SD rats were treated with dimethybenzanthracene (DMBA). […] During the treatment and one day after each treatment, i.e. in the recovery phase, the animals obtained respectively 15 mg/kg BVDU.

[2] = test system: AH13r tumour cells; assay: Hoechst 33258/propidium iodide (Hopi) double colouration for apoptosis; format: cell-based; settings: HOPI double colouration of AH13r tumour cells of the rat
[3] = test system: AH13r sarcoma cells; assay: AH13r cell number under increasing doses of cytostatic with or without BVDU, followed by recovery phase; format: cell-based, rat; settings: for cell number: cytostatic + BVDU after three treatment cycles, in comparison to cytostatic alone
Excerpt: This effect was established by means of a screening system according to the invention. This screening method is based on the treatment of tumour cells during a chemotherapy cycle over a period of preferably eight to thirty days with increasing doses of a cytostatic and a constant dose of the overexpression inhibitor. After this combination treatment, the cytostatic is discontinued and the treatment is continued solely with the overexpression inhibitor. This recovery phase (also called recovery phase) lasts preferably between 3 and 10 days. Chemotherapy cycles of this type can be implemented successively up to 6 times.
AH13r cells were subjected to increasing doses of the cytostatic mitomycin C (MMC). […] This inhibitory effect was maintained even after discontinuation of the cytostatic in the next cycle, in the so-called recovery phase. The cells without MMC and BVDU continued to grow without inhibition.

[4] = DMBA tumour test in SD rats, animal weight (toxic side effects); format: in vivo
Procedure: DT-D inactivates ROS and thus protects cells from non-specific ROS and electrophilic attacks. […] DOX treatment alone leads to weight losses because of the toxic side effects. It is certain that only the side effects (possibly the cardiotoxicity characteristic of DOX) are reduced by BVDU but not the toxic effects on the tumour.
as §1

[5] = test system: APURINIC ENDONUCLEASE; APE; APE1; APEX; assay: Two-dimensional gel electrophoresis, APEX; format: cell-based; settings: co-treatment of MMC with BVDU
Excerpt: (§2) Listing of the proteins influenced by the treatment with base analogues and mitomycin C. The results of the implementation of a two-dimensional gel electrophoresis are compiled in the following Table 2.

[6] = test system: STAT3; assay: Western Blot analysis of survival pathways, STAT3; format: cell-based; settings: after DOX treatment, recovery phase (only BVDU given, no cytostatic)
Excerpt: (§3) We tested different “survival pathways” by means of Western Blot analysis. The analyses were implemented according to standard methods, as is described in Sambrook et al., 2001, Molecular Cloning (3rd ed.). Antibody dilutions: P-STAT3 (cell signalling) 1:500, JUN-D (Santa Cruz, Calif.) 1:1,000.
(§4) The densitometrically determined content of oncogene proteins JUN-D and STAT3 was reduced by a quarter or two thirds after DOX treatment in the recovery phase (r=recovery phase). In the “recovery” only BVDU is given, no cytostatic.

[7] = test system: UBIQUITIN-CONJUGATING ENZYME E2N; UBE2N; assay: Two-dimensional gel electrophoresis, UBE2N; format: cell-based; settings: co-treatment of MMC with BVDU
Excerpt: as §2

[8] = test system: JUN-D; assay: Western Blot analysis of survival pathways, JUN-D; format: cell-based
Excerpt: as §3, §4

Structure (SMILES): COc1cccc2c1C(=O)c1c(O)c3c(c(O)c1C2=O)C[C@@](O)(C(=O)CO)C[C@@H]3O[C@H]1C[C@H](N)[C@H](O)[C@H](C)O1 [DOX, doxorubicin]
Relative tumour size Day 1 ([1]; DMBA-induced tumours, BVDU 15 mg/kg, average of 5-8 rats, Day 1): 1
Relative tumour size Day 16 ([1]; DMBA-induced tumours, BVDU 15 mg/kg, average of 5-8 rats, Day 16): 1.5
growth of DMBA-induced tumours [1]: inhibited in their growth
apoptosis [2]: initiate apoptosis
cell number [3]: Corresponding results
Relative animal weight Day 1 ([4]; SD rats, DMBA-induced tumours, DOX 1 mg/kg, BVDU 15 mg/kg, average of 5-8 rats, Day 1): 0
Relative animal weight Day 16 ([4]; SD rats, DMBA-induced tumours, DOX 1 mg/kg, BVDU 15 mg/kg, average of 5-8 rats, Day 16): −7%
animal weight change (toxic side effects) ([4]; rat, in vivo): weight losses

reduction of overexpression of UBE2N [7]: approximately one third
Structure (SMILES): O=c1[nH]c(=O)n([C@H]2C[C@H](O)[C@@H](CO)O2)cc1/C=C/Br [BVDU, (E)-5-(2-bromovinyl)-2′-deoxyuridine]
reduction of overexpression of APEX [5]: approximately one third
reduction of densitometrically determined content of STAT3 [6]: approximately two thirds
apoptosis [2]: promotes apoptosis
inhibition of MMC induced JUN-D overexpression ([8]; BVDU given in the recovery after MMC): complete inhibition
reduction of densitometrically determined content of JUN-D ([8]; after DOX treatment, recovery phase (only BVDU given, no cytostatic)): approximately one quarter; also recorded: a quarter
cell growth in the recovery phase ([3]; after discontinuation of the cytostatic, BVDU continued alone): greatly inhibited in their growth
toxic effect on cells ([3]; given alone): no toxic effect

Structure (SMILES): CO[C@@]12[C@H](COC(N)=O)C3=C(C(=O)C(C)=C(N)C3=O)N1C[C@@H]1N[C@@H]12 [MMC, mitomycin C]
apoptosis [2]: initiate apoptosis

Structure (SMILES): O=C1c2c(O)ccc(O)c2C(=O)c2c(NCCNCCO)ccc(NCCNCCO)c21 [MXA, mitoxantrone]
apoptosis [2]: initiate apoptosis
cell number [3]: Corresponding results

Structure (SMILES): CN(Cc1cnc2nc(N)nc(N)c2n1)c1ccc(C(=O)N[C@@H](CCC(=O)O)C(=O)O)cc1 [MTX, methotrexate]
cell number [3]: Corresponding results
